Article PMC5218480 (PLoS ONE, 2017)

System: MV-4-11 cells
Test: Gene expression microarray analysis (Affymetrix PrimeView) and GSEA
Format: cell-based, human
Design: RFU PODN (11730768_x_at) / Fold change /veh PODN (11730768_x_at) / RFU LINC00158 (11744669_a_at) / Fold change /veh LINC00158 (11744669_a_at) / RFU DUSP10 (11751237_a_at) / Fold change /veh DUSP10 (11751237_a_at) / RFU ID3 (11757404_x_at) / Fold change /veh ID3 (11757404_x_at) / RFU PLEKHG5 (11737974_s_at) / Fold change /veh PLEKHG5 (11737974_s_at) / RFU LRRC4B (11730491_at) / Fold change /veh LRRC4B (11730491_at) / RFU GIMAP4 (11747438_a_at) / Fold change /veh GIMAP4 (11747438_a_at) / RFU KRT8 (11758183_x_at) / Fold change /veh KRT8 (11758183_x_at) / RFU CNN1 (11734310_a_at) / Fold change /veh CNN1 (11734310_a_at) / RFU VPS37D (11726825_at) / Fold change /veh VPS37D (11726825_at) / RFU C10orf10 (11716522_x_at) / Fold change /veh C10orf10 (11716522_x_at) / RFU KIR2DL2 /// KIR2DL4 /// KIR2DL5A /// KIR2DL5B /// KIR2DS1 /// KIR2DS2 /// KIR2DS3 /// KIR2DS4 /// KIR3DL3 /// KIR3DL3 /// KIR3DS1 (11738374_at) / Fold change /veh KIR2DL2 /// KIR2DL4 /// KIR2DL5A /// KIR2DL5B /// KIR2DS1 /// KIR2DS2 /// KIR2DS3 /// KIR2DS4 /// KIR3DL3 /// KIR3DL3 /// KIR3DS1 (11738374_at) / RFU C1QL1 (11718748_at) / Fold change /veh C1QL1 (11718748_at) / RFU TMPRSS4 (11747572_a_at) / Fold change /veh TMPRSS4 (11747572_a_at) / RFU HAMP (11756126_x_at) / Fold change /veh HAMP (11756126_x_at) / RFU RNFT2 (11725882_a_at) / Fold change /veh RNFT2 (11725882_a_at) / RFU NR4A2 (11747474_a_at) / Fold change /veh NR4A2 (11747474_a_at) / RFU ABCC12 (11746883_a_at) / Fold change /veh ABCC12 (11746883_a_at) / RFU TMEM136 (11760407_x_at) / Fold change /veh TMEM136 (11760407_x_at) / RFU CLDN22 /// WWC2 (11732394_at) / Fold change /veh CLDN22 /// WWC2 (11732394_at) / RFU HLA-DPB1 (11760878_x_at) / Fold change /veh HLA-DPB1 (11760878_x_at) / RFU SPINT1 (11716480_a_at) / Fold change /veh SPINT1 (11716480_a_at) / RFU GAP43 (11754022_s_at) / Fold change /veh GAP43 (11754022_s_at) / RFU A4GNT (11735810_at) / Fold change /veh A4GNT (11735810_at) / RFU PRB3 (11715151_x_at) / Fold change /veh PRB3 (11715151_x_at) / RFU TUBB4B (11761932_at) / Fold change /veh TUBB4B (11761932_at) / RFU CAPN14 (11732068_a_at) / Fold change /veh CAPN14 (11732068_a_at) / RFU TMCC2 (11721928_a_at) / Fold change /veh TMCC2 (11721928_a_at) / RFU IRGQ (11745062_a_at) / Fold change /veh IRGQ (11745062_a_at) / RFU FAM174B (11720279_a_at) / Fold change /veh FAM174B (11720279_a_at) / RFU TMPRSS4 (11748680_a_at) / Fold change /veh TMPRSS4 (11748680_a_at) / RFU FAM212B (11763350_a_at) / Fold change /veh FAM212B (11763350_a_at) / RFU PLEKHG5 (11743358_a_at) / Fold change /veh PLEKHG5 (11743358_a_at) / RFU ZSCAN30 (11745921_a_at) / Fold change /veh ZSCAN30 (11745921_a_at) / RFU CMKLR1 (11741424_a_at) / Fold change /veh CMKLR1 (11741424_a_at) / RFU LOC101060620 /// MAPK8IP1 (11723275_at) / Fold change /veh LOC101060620 /// MAPK8IP1 (11723275_at) / RFU SPTSSB (11747773_x_at) / Fold change /veh SPTSSB (11747773_x_at) / RFU PRSS12 (11739890_at) / Fold change /veh PRSS12 (11739890_at) / RFU BIN1 (11741810_x_at) / Fold change /veh BIN1 (11741810_x_at) / RFU WNT11 (11732464_a_at) / Fold change /veh WNT11 (11732464_a_at) / RFU C10orf10 (11716521_a_at) / Fold change /veh C10orf10 (11716521_a_at) / RFU C5orf56 (11738089_at) / Fold change /veh C5orf56 (11738089_at) / RFU CYB561 (11721691_x_at) / Fold change /veh CYB561 (11721691_x_at) / RFU ANKRD19P (11752326_a_at) / Fold change /veh ANKRD19P (11752326_a_at) / RFU OR2T12 /// OR2T33 /// OR2T8 (11738714_s_at) / Fold change /veh OR2T12 /// OR2T33 /// OR2T8 (11738714_s_at) / RFU VCAN (11748164_a_at) / Fold change /veh VCAN (11748164_a_at) / RFU JSRP1 (11732532_at) / Fold change /veh JSRP1 (11732532_at) / RFU KRTAP10-11 (11738290_x_at) / Fold change /veh KRTAP10-11 (11738290_x_at) / RFU MYO3A (11730013_a_at) / Fold change /veh MYO3A (11730013_a_at) / RFU EBF3 (11725865_a_at) / Fold change /veh EBF3 (11725865_a_at) / RFU CAMK2N1 (11719241_x_at) / Fold change /veh CAMK2N1 (11719241_x_at) / RFU C5orf56 (11738088_a_at) / Fold change /veh C5orf56 (11738088_a_at) / RFU OLFML3 (11715873_a_at) / Fold change /veh OLFML3 (11715873_a_at) / RFU LOC100653217 /// NTM (11731650_a_at) / Fold change /veh LOC100653217 /// NTM (11731650_a_at) / RFU MAPK11 (11762145_a_at) / Fold change /veh MAPK11 (11762145_a_at) / RFU FIZ1 (11724087_x_at) / Fold change /veh FIZ1 (11724087_x_at) / RFU OASL (11726364_x_at) / Fold change /veh OASL (11726364_x_at) / RFU SOX15 (11748057_x_at) / Fold change /veh SOX15 (11748057_x_at) / RFU CD79A (11719716_a_at) / Fold change /veh CD79A (11719716_a_at) / RFU HIST1H1D (11736915_at) / Fold change /veh HIST1H1D (11736915_at) / RFU CASKIN2 (11723855_a_at) / Fold change /veh CASKIN2 (11723855_a_at) / RFU LOC730098 (11760151_x_at) / Fold change /veh LOC730098 (11760151_x_at) / RFU OR4N2 (11742367_at) / Fold change /veh OR4N2 (11742367_at) / RFU PRRT2 (11749266_a_at) / Fold change /veh PRRT2 (11749266_a_at) / RFU SNX32 (11753110_a_at) / Fold change /veh SNX32 (11753110_a_at) / RFU CDHR5 (11726645_a_at) / Fold change /veh CDHR5 (11726645_a_at) / RFU RCAN1 (11760418_a_at) / Fold change /veh RCAN1 (11760418_a_at) / RFU FAM167A (11723789_a_at) / Fold change /veh FAM167A (11723789_a_at) / RFU FAM26E (11764081_at) / Fold change /veh FAM26E (11764081_at) / RFU ISYNA1 (11749810_s_at) / Fold change /veh ISYNA1 (11749810_s_at) / RFU ACY1 (11761880_at) / Fold change /veh ACY1 (11761880_at) / RFU 11764098_at / Fold change /veh 11764098_at / RFU SAMD14 (11745864_x_at) / Fold change /veh SAMD14 (11745864_x_at) / RFU NPB (11741838_a_at) / Fold change /veh NPB (11741838_a_at) / RFU TMPRSS6 (11731388_a_at) / Fold change /veh TMPRSS6 (11731388_a_at) / RFU KRTAP10-2 (11738614_at) / Fold change /veh KRTAP10-2 (11738614_at) / RFU ARHGAP8 /// PRR5-ARHGAP8 (11727945_x_at) / Fold change /veh ARHGAP8 /// PRR5-ARHGAP8 (11727945_x_at) / RFU KRTAP5-7 /// NADSYN1 (11734609_at) / Fold change /veh KRTAP5-7 /// NADSYN1 (11734609_at) / RFU RASL12 (11751679_a_at) / Fold change /veh RASL12 (11751679_a_at) / RFU CDKN2B (11736163_a_at) / Fold change /veh CDKN2B (11736163_a_at) / RFU PRF1 (11729649_at) / Fold change /veh PRF1 (11729649_at) / RFU, ZNF638 /// ZNF638-IT1 / Fold change vs veh, ZNF638 /// ZNF638-IT1 / RFU, PANK3 / Fold change vs veh, PANK3 / RFU, SH3YL1 / Fold change vs veh, SH3YL1 / RFU, ZEB2 / Fold change vs veh, ZEB2 / RFU, NRIP1 / Fold change vs veh, NRIP1 / RFU, PTTG1IP / Fold change vs veh, PTTG1IP / RFU, CAPN2 / Fold change vs veh, CAPN2 / RFU, MED14 / Fold change vs veh, MED14 / RFU, SNORA58 / Fold change vs veh, SNORA58 / RFU, C1orf63 / Fold change vs veh, C1orf63 / RFU, LRRFIP1 / Fold change vs veh, LRRFIP1 / RFU, NDUFAF7 / Fold change vs veh, NDUFAF7 / RFU, SLC12A2 / Fold change vs veh, SLC12A2 / RFU, IBTK / Fold change vs veh, IBTK / RFU, ESF1 / Fold change vs veh, ESF1 / Fold change vs veh, TMEM50B / RFU, TAOK1 / Fold change vs veh, TAOK1 / RFU, ACBD3 / Fold change vs veh, ACBD3 / RFU, TMA16 / Fold change vs veh, TMA16 / RFU, RWDD3 / Fold change vs veh, RWDD3 / RFU, BCAT1 / Fold change vs veh, BCAT1 / RFU, EDEM3 / Fold change vs veh, EDEM3 / RFU, TMEM33 / Fold change vs veh, TMEM33 / RFU, WDR75 / Fold change vs veh, WDR75 / RFU, AHCTF1 / Fold change vs veh, AHCTF1 / RFU, TFRC / Fold change vs veh, TFRC / RFU, ZDHHC17 / Fold change vs veh, ZDHHC17 / RFU, NOM1 / Fold change vs veh, NOM1 / RFU, ARL8B / Fold change vs veh, ARL8B / RFU, ZBTB11 / Fold change vs veh, ZBTB11 / RFU, TAMM41 / Fold change vs veh, TAMM41 / RFU, KIAA1704 /// LOC100996395 / Fold change vs veh, KIAA1704 /// LOC100996395 / RFU, ING1 / Fold change vs veh, ING1 / RFU, TRMT61B / Fold change vs veh, TRMT61B / RFU, FUBP3 / Fold change vs veh, FUBP3 / RFU, TP53 / Fold change vs veh, TP53 / RFU, TNKS2 / Fold change vs veh, TNKS2 / RFU, ZFP14 / Fold change vs veh, ZFP14 / RFU, ACTR2 / Fold change vs veh, ACTR2 / RFU, PPP3R1 / Fold change vs veh, PPP3R1 / RFU, PIK3R1 / Fold change vs veh, PIK3R1 / RFU, HNRNPA1 / Fold change vs veh, HNRNPA1 / RFU, RNF170 / Fold change vs veh, RNF170 / RFU, ZNF28 / Fold change vs veh, ZNF28 / RFU, RNGTT / Fold change vs veh, RNGTT / RFU, OGT / Fold change vs veh, OGT / RFU, BRD1 / Fold change vs veh, BRD1 / RFU, MARS / Fold change vs veh, MARS / RFU, ZNF655 / Fold change vs veh, ZNF655 / RFU, FAHD1 / Fold change vs veh, FAHD1 / RFU, BDP1 / Fold change vs veh, BDP1 / RFU, LRRCC1 / Fold change vs veh, LRRCC1 / RFU, ARID1A / Fold change vs veh, ARID1A / RFU, ZNF146 / Fold change vs veh, ZNF146 / RFU, ZNF330 / Fold change vs veh, ZNF330 / RFU, GPN3 / Fold change vs veh, GPN3 / RFU, C9orf123 / Fold change vs veh, C9orf123 / RFU, N4BP2L2 / Fold change vs veh, N4BP2L2 / RFU, ARFIP1 / Fold change vs veh, ARFIP1 / RFU, FAM179B / Fold change vs veh, FAM179B / RFU, BCL10 / Fold change vs veh, BCL10 / RFU, UHRF1BP1L / Fold change vs veh, UHRF1BP1L / RFU, BET1 / Fold change vs veh, BET1 / RFU, CNOT2 / Fold change vs veh, CNOT2 / RFU, ZNF268 / Fold change vs veh, ZNF268 / Fold change vs veh, ZNF507 / RFU, DGCR2 / Fold change vs veh, DGCR2 / RFU, WDSUB1 / Fold change vs veh, WDSUB1 / Fold change vs veh, HSP90B1 /// MIR3652 / RFU, ADSS / Fold change vs veh, ADSS / RFU, GK / Fold change vs veh, GK / RFU, ZNF148 / Fold change vs veh, ZNF148 / RFU, TAF9 / Fold change vs veh, TAF9 / RFU, SLC1A5 / Fold change vs veh, SLC1A5 / RFU, SLMO2 / Fold change vs veh, SLMO2 / RFU, ABCC4 / Fold change vs veh, ABCC4 / RFU, LOC101060439 /// RAP1B / Fold change vs veh, LOC101060439 /// RAP1B / RFU, RFX7 / Fold change vs veh, RFX7 / RFU, GTPBP10 / Fold change vs veh, GTPBP10 / RFU, CNEP1R1 / Fold change vs veh, CNEP1R1 / RFU, BIVM-ERCC5 /// ERCC5 / Fold change vs veh, BIVM-ERCC5 /// ERCC5 / RFU, ILF3 / Fold change vs veh, ILF3 / RFU 11762660_at / Fold change /veh 11762660_at / RFU VCAN (11757783_s_at) / Fold change /veh VCAN (11757783_s_at) / RFU DDX43 (11728927_at) / Fold change /veh DDX43 (11728927_at) / RFU KRT8 (11758188_x_at) / Fold change /veh KRT8 (11758188_x_at) / RFU NKD1 (11759106_at) / Fold change /veh NKD1 (11759106_at) / RFU SRD5A1 (11742802_a_at) / Fold change /veh SRD5A1 (11742802_a_at) / RFU TPSAB1 /// TPSB2 (11721975_s_at) / Fold change /veh TPSAB1 /// TPSB2 (11721975_s_at) / RFU GSTM3 (11746129_a_at) / Fold change /veh GSTM3 (11746129_a_at) / RFU IL23R (11737362_x_at) / Fold change /veh IL23R (11737362_x_at) / RFU TMEM51 (11727254_a_at) / Fold change /veh TMEM51 (11727254_a_at) / RFU PIWIL2 (11732686_x_at) / Fold change /veh PIWIL2 (11732686_x_at) / RFU ORM1 (11744905_x_at) / Fold change /veh ORM1 (11744905_x_at) / RFU CCDC152 (11743942_at) / Fold change /veh CCDC152 (11743942_at) / RFU ECM1 (11717891_a_at) / Fold change /veh ECM1 (11717891_a_at) / RFU IL23R (11748794_a_at) / Fold change /veh IL23R (11748794_a_at) / RFU TNFAIP8L3 (11732012_x_at) / Fold change /veh TNFAIP8L3 (11732012_x_at) / RFU MBOAT4 (11741988_at) / Fold change /veh MBOAT4 (11741988_at) / RFU 11764193_at / Fold change /veh 11764193_at / RFU TMEM53 (11763286_at) / Fold change /veh TMEM53 (11763286_at) / RFU MAGEB2 (11727129_at) / Fold change /veh MAGEB2 (11727129_at) / RFU TMEM200A (11744735_a_at) / Fold change /veh TMEM200A (11744735_a_at) / RFU CCDC152 (11751479_a_at) / Fold change /veh CCDC152 (11751479_a_at) / RFU FAM211A (11726209_a_at) / Fold change /veh FAM211A (11726209_a_at) / RFU RGS16 (11746705_a_at) / Fold change /veh RGS16 (11746705_a_at) / RFU VCAN (11755009_s_at) / Fold change /veh VCAN (11755009_s_at) / RFU RHOB (11743442_s_at) / Fold change /veh RHOB (11743442_s_at) / RFU RGS16 (11720943_a_at) / Fold change /veh RGS16 (11720943_a_at) / RFU RGS16 (11720944_at) / Fold change /veh RGS16 (11720944_at) / RFU, VPS4B / Fold change vs veh, VPS4B / RFU, CREB1 / Fold change vs veh, CREB1 / RFU, DNAJC13 / Fold change vs veh, DNAJC13 / RFU, GNAQ / Fold change vs veh, GNAQ / RFU, CDK5R1 / Fold change vs veh, CDK5R1 / RFU, ZRANB3 / Fold change vs veh, ZRANB3 / RFU, CUL4A / Fold change vs veh, CUL4A / RFU, CCNY / Fold change vs veh, CCNY / RFU, UFL1 / Fold change vs veh, UFL1 / RFU, COG3 / Fold change vs veh, COG3 / RFU, DIAPH2 / Fold change vs veh, DIAPH2 / RFU, SKA2 / Fold change vs veh, SKA2 / RFU, AFF3 / Fold change vs veh, AFF3 / RFU, LMF1 / Fold change vs veh, LMF1 / RFU, IPO11 / Fold change vs veh, IPO11 / RFU, DFFB / Fold change vs veh, DFFB / RFU, FOXP1 / Fold change vs veh, FOXP1 / RFU, CARD8 / Fold change vs veh, CARD8 / RFU, STRN3 / Fold change vs veh, STRN3 / RFU, ADK / Fold change vs veh, ADK / RFU, RASSF2 / Fold change vs veh, RASSF2 / RFU, WIPF1 / Fold change vs veh, WIPF1 / RFU, LARP1B / Fold change vs veh, LARP1B / RFU, RASA1 / Fold change vs veh, RASA1 / RFU, RB1 / Fold change vs veh, RB1 / RFU, PPFIA1 / Fold change vs veh, PPFIA1 / RFU, MAT2A / Fold change vs veh, MAT2A / RFU, CCT5 / Fold change vs veh, CCT5 / RFU, WDR92 / Fold change vs veh, WDR92 / RFU, CUX1 / Fold change vs veh, CUX1 / RFU, TTC7A / Fold change vs veh, TTC7A / RFU, TMEM135 / Fold change vs veh, TMEM135 / RFU, DEPTOR / Fold change vs veh, DEPTOR / RFU, CPM / Fold change vs veh, CPM / RFU, DNAJB6 / Fold change vs veh, DNAJB6 / RFU, CACNA2D3 / Fold change vs veh, CACNA2D3 / RFU, DTX4 / Fold change vs veh, DTX4 / RFU, TFCP2 / Fold change vs veh, TFCP2 / RFU, GMCL1 /// GMCL1P1 / Fold change vs veh, GMCL1 /// GMCL1P1 / RFU, AEBP2 / Fold change vs veh, AEBP2 / RFU, SNHG1 /// SNORD22 /// SNORD25 /// SNORD26 /// SNORD27 /// SNORD28 /// SNORD29 /// SNORD31 / Fold change vs veh, SNHG1 /// SNORD22 /// SNORD25 /// SNORD26 /// SNORD27 /// SNORD28 /// SNORD29 /// SNORD31 / Fold change (Aza/veh), C12orf56 (ProbeSet 11735607_a_at) / Fold change (ACY-1035/veh), C12orf56 (ProbeSet 11735607_a_at) / Fold change (Aza/veh), FGFR1OP (ProbeSet 11751329_s_at) / Fold change (ACY-1035/veh), FGFR1OP (ProbeSet 11751329_s_at) / Fold change (Aza/veh), VPS36 (ProbeSet 11739960_a_at) / Fold change (ACY-1035/veh), VPS36 (ProbeSet 11739960_a_at) / RFU SYPL1 (11715823_x_at) / Fold change /veh SYPL1 (11715823_x_at) / RFU IGFBP7 (11715501_s_at) / Fold change /veh IGFBP7 (11715501_s_at) / RFU REEP3 (11722064_at) / Fold change /veh REEP3 (11722064_at) / RFU IGLL1 (11728026_x_at) / Fold change /veh IGLL1 (11728026_x_at): dose or concentration left out as unconfirmed
Settings: ProbeSet 11731610_x_at; LIST B

Nc1ccc(-c2cccs2)cc1NC(=O)c1ccc2c(c1)cc(C1CC1)n2CCN1CCOCC1 [ACY-1035]
Fold change vs veh, KIAA1704 /// LOC100996395: 0.91
